Molecules are shown by their SMILES.

The target of assay [1] is human RORγt ligand binding domain (RORγt LBD) (Homo sapiens (Human), UniProt P51449). In words: RORγt ThermoFluor® assay (thermal shift binding). To be noted: read-out: ThermoFluor® Assay, Kd. The method in brief:
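Binding was inferred from thermal stabilisation (ΔTm) of the E. coli-expressed RORγt LBD (0.065 mg/mL), monitored by 1,8-ANS (60 μM) emission at 500 nm during a 1 °C/min ramp. Buffer was Hepes 100 mM pH 7.0 with NaCl, GSH and Tween-20.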
On the technique in general: DSF heats the sample and reads unfolding from a dye or from intrinsic fluorescence.

In assay [2] the target is T1, full-length human RORγt (Homo sapiens (Human), UniProt P51449). In words: RORγt (full-length human) reporter assay, Conditions A. The class given is cell-based. The note with it: for IC50: read-out: RORγt (FL) Reporter Assay A, IC50; for inhibition at 6 µM: read-out: RORγt (FL) Reporter Assay A, % inhibition @ 6 μM; for RORγt (FL) Reporter Assay A, % inhibition (value marked **): marked **: footnote not shown. From the text: RORγt (Full-Length Human) Reporter Assay:
Cells used in this assay were transiently co-transfected with three different plasmids, one expressing the GAL4-DNA binding domain (DBD)-RORγt fusion protein under control of a CMV promoter (NH2-Gal4-DBD:RORC-COOH in pCMV-BD, Stratagene #211342), and two reporter plasmids—the firefly luciferase reporter under control of a GAL4 promoter (pFR-Luc 2×GAL4) and Renilla luciferase reporter under control of CMV promoter (pRL-CMV, Promega # E2261). The full-length coding sequence was used for human RORγt, i.e., nucleotides 142-1635 of human RORγt, transcript variant 2, NCBI Accession: NM_001001523.1 (SEQ ID NO:1). HEK293T cells were plated at 35000 per well in 96-well plate in medium of MEM with 8.6% FBS. After 18-22 hours incubation, the transfection was carried out by using a PEI solution with 170.5 ng total DNA/well (50 ng pCMV-BD-ROR plus 20 ng of pFR-Luc reporter and 0.5 ng of pRL-CMV reporter plus 100 ng Carrier DNA (Clontech #630440) for each well). 4-6 hours after transfection, cells were treated with compounds for overnight in the medium with final concentration of FBS 1.1% and DMSO 0.1%. After overnight (16 to 20 hours) incubation, media were removed and cells were lysed with 20 μL 1× Passive Lysis Buffer (Promega) for 10-15 minutes. Luminescence was measured using a BMG LUMIstar OPTIMA plate reader, after addition of 75 μL/well firefly luciferase buffer, followed by 75 μL/well Renilla luciferase buffer. To calculate the effect of compounds on RORγt activity, firefly values were normalized against values of DMSO only and values of reference compound at saturating concentration, then further normalized against Renilla signals. IC50s were generated by plotting final Renilla normalized data against compound concentration and percent inhibition was calculated against DMSO control.
For orientation: Reporter assays use an easily measured gene product as a stand-in for the process of interest.

The target of assay [3] is T1, full-length human RORγt. In words: RORγt (full-length human) reporter assay, Conditions B or C. Type of assay: cell-based. The gist of the method: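 Readout is dual luciferase: firefly (GAL4-driven) normalized to DMSO-only and saturating-reference controls, then to CMV-Renilla. Full-length human RORγt fused to GAL4-DBD was transiently expressed in HEK293T; compound exposure ran overnight (16-20 h) starting 4-6 h after transfection, final FBS 1.3%, DMSO 0.1%.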

human RORγt ligand binding domain (RORγt LBD), sequence (P51449 other isoform, or with tags, fused parts or gaps): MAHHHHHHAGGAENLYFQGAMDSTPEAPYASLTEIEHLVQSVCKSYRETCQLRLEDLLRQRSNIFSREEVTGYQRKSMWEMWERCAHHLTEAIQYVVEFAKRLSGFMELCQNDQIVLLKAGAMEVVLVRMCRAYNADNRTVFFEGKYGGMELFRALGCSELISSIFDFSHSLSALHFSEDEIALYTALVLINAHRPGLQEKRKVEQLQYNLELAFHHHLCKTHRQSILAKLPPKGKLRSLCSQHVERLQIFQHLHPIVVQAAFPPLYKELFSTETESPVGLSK
T1 sequence (P51449 other isoform, or with tags, fused parts or gaps): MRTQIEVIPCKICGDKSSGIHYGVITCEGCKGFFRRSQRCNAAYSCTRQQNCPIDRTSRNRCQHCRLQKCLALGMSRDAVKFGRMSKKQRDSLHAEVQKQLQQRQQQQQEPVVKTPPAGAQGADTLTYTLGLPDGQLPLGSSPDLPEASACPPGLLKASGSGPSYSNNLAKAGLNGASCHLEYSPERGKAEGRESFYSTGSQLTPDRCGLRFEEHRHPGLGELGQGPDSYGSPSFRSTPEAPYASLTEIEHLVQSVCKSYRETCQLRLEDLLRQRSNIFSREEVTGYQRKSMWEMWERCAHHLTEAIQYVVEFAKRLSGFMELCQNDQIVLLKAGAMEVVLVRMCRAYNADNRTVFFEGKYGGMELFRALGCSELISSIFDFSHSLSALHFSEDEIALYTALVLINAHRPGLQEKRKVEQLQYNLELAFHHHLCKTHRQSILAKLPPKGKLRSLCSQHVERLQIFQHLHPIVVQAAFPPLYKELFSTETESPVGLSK

As to `CC(C)(O)CNC(=O)c1nc(C(=O)N2CCC(F)CC2)c(-c2cnc(NC3CCC(F)(F)CC3)cc2C(F)(F)F)s1` [Example 18, 5-(6-((4,4-Difluorocyclohexyl)amino)-4-(trifluoromethyl)pyridin-3-yl)-4-(4-fluoropiperidine-1-carbonyl)-N-(2-hydroxy-2-methylpropyl)thiazole-2-carboxamide], the Kd (usually the constant that tells how readily two partners part at equilibrium) in assay [1] was found to be 0.08 µM. In assay [2] (Conditions A), the IC50 (in general, the point on the concentration scale where inhibition reaches its midpoint) came out at 0.62 µM and the inhibition – broadly, the relative decrease from the control value, in per cent – at 6 µM stood at 106%.

Turning to `CC(C)(O)CNC(=O)c1nc(C(=O)N2CCC(F)CC2)c(-c2cnc(NC3CCC3)cc2C(F)(F)F)s1` [Example 9, 5-(6-(Cyclobutylamino)-4-(trifluoromethyl)pyridin-3-yl)-4-(4-fluoropiperidine-1-carbonyl)-N-(2-hydroxy-2-methylpropyl)thiazole-2-carboxamide], the Kd in assay [1] was found to be 0.077 µM. Besides, in assay [2] (Conditions A), the IC50 is 0.33 µM and the inhibition at 6 µM turned out to be 104%.

`C[C@H]1CC(F)(F)CN1C(=O)c1nc(C(=O)NCC(C)(C)O)sc1-c1cnc(NC2CCCCC2)cc1C(F)(F)F` [Example 11, (S)-5-(6-(Cyclohexylamino)-4-(trifluoromethyl)pyridin-3-yl)-4-(4,4-difluoro-2-methylpyrrolidine-1-carbonyl)-N-(2-hydroxy-2-methylpropyl)thiazole-2-carboxamide]: the equilibrium dissociation constant (Kd) in assay [1] stood at 0.0026 µM. Further, in assay [2] (Conditions A), the “RORγt (FL) Reporter Assay A, % inhibition (value marked **)” value is 107** % and the IC50 was 0.017 µM.

Regarding `CC(C)(O)CNC(=O)c1nc(C(=O)N2CCC(F)CC2)c(-c2cnc(NC3CC4(CCC4)C3)cc2C(F)(F)F)s1` [Example 24, 4-(4-Fluoropiperidine-1-carbonyl)-N-(2-hydroxy-2-methylpropyl)-5-(6-(spiro[3.3]heptan-2-ylamino)-4-(trifluoromethyl)pyridin-3-yl)thiazole-2-carboxamide], the Kd in assay [1] amounted to 0.02 µM. For the same compound, in assay [2] (Conditions A), the IC50 was 0.097 µM and the inhibition at 6 µM came to 107%.

`CCOc1cc(NC2CCCCC2)ncc1-c1sc(C(=O)NCC(C)(C)O)nc1C(=O)N1CCC(F)CC1` [Example 69, 5-(6-(Cyclohexylamino)-4-ethoxypyridin-3-yl)-4-(4-fluoropiperidine-1-carbonyl)-N-(2-hydroxy-2-methylpropyl)thiazole-2-carboxamide]: the Kd in assay [1] was found to be 0.17 µM. In assay [2] (Conditions A), the IC50 was found to be 0.63 µM and the inhibition at 6 µM stood at 85%.

On to `CC(C)(O)CNC(=O)c1nc(C(=O)N2CCC(F)CC2)c(-c2cnc(NC3CCCCC3)c(C#N)c2C(F)(F)F)s1` [Example 68, 5-(5-Cyano-6-(cyclohexylamino)-4-(trifluoromethyl)pyridin-3-yl)-4-(4-fluoropiperidine-1-carbonyl)-N-(2-hydroxy-2-methylpropyl)thiazole-2-carboxamide], for which the Kd in assay [1] came to 0.37 µM. In assay [2] (Conditions A), the IC50 stood at 1.1 µM and the inhibition at 6 µM came out at 70%.

`CC(C)(O)CNC(=O)c1nc(C(=O)N2CCC(F)CC2)c(-c2cnc(NC3CCCC3)cc2C(F)(F)F)s1` [Example 10, 5-(6-(Cyclopentylamino)-4-(trifluoromethyl)pyridin-3-yl)-4-(4-fluoropiperidine-1-carbonyl)-N-(2-hydroxy-2-methylpropyl)thiazole-2-carboxamide]: the Kd in assay [1] is 0.0081 µM. Besides, in assay [2] (Conditions A), the 50% inhibitory concentration (IC50) is 0.071 µM and the inhibition at 6 µM is 108%.

Turning to `CC(C)(O)CNC(=O)c1nc(C(=O)N2CCC(F)CC2)c(-c2cnc(NC3CCCCC3)c(C#N)c2)s1` [Example 58, 5-(5-Cyano-6-(cyclohexylamino)pyridin-3-yl)-4-(4-fluoropiperidine-1-carbonyl)-N-(2-hydroxy-2-methylpropyl)thiazole-2-carboxamide], in assay [1], the Kd came to 0.17 µM. Also, in assay [2] (Conditions A), the IC50 is 0.77 µM and the inhibition at 6 µM was found to be 93%.

As to `CC(C)(O)CNC(=O)c1nc(C(=O)N2CCC(F)CC2)c(-c2cnc(NCCC(F)(F)F)c(C(F)(F)F)c2)s1` [Example 7, 4-(4-Fluoropiperidine-1-carbonyl)-N-(2-hydroxy-2-methylpropyl)-5-(5-(trifluoromethyl)-6-((3,3,3-trifluoropropyl)amino)pyridin-3-yl)thiazole-2-carboxamide], the Kd in assay [1] is 0.23 µM. Further, in assay [2] (Conditions A), the IC50 is 0.62 µM and the inhibition at 6 µM worked out at 80%.

On to `CC(C)(O)CNC(=O)c1nc(C(=O)N2CCC(F)CC2)c(-c2cnc(NC3CCCC(F)(F)C3)cc2C(F)(F)F)s1` (stereo not drawn) [Example 23, 5-(6-((3,3-Difluorocyclohexyl)amino)-4-(trifluoromethyl)pyridin-3-yl)-4-(4-fluoropiperidine-1-carbonyl)-N-(2-hydroxy-2-methylpropyl)thiazole-2-carboxamide], for which, in assay [1], the Kd was determined as 0.03 µM. In addition, in assay [2] (Conditions A), the IC50 amounted to 0.079 µM and the inhibition at 6 µM amounted to 96%.

For the compound `CC(C)(O)CCNC(=O)c1nc(C(=O)N2CCC(F)(F)CC2)c(-c2cnc(NC3CCCCC3)cc2C(F)(F)F)s1` [Example 15, 5-(6-(Cyclohexylamino)-4-(trifluoromethyl)pyridin-3-yl)-4-(4,4-difluoropiperidine-1-carbonyl)-N-(3-hydroxy-3-methylbutyl)thiazole-2-carboxamide], in assay [1], the Kd came to 0.0075 µM. Also, in assay [2] (Conditions A), the “RORγt (FL) Reporter Assay A, % inhibition (value marked **)” value was 105** % and the IC50 is 0.039 µM.

As to `CC(C)S(=O)(=O)Nc1cc(C(F)(F)F)c(-c2sc(C(=O)NCC(C)(C)O)nc2C(=O)N2CCC(F)CC2)cn1` [Comparator Example 3, 4-(4-Fluoropiperidine-1-carbonyl)-N-(2-hydroxy-2-methylpropyl)-5-(6-((1-methylethyl)sulfonamido)-4-(trifluoromethyl)pyridin-3-yl)thiazole-2-carboxamide, reference compound], the Kd in assay [1] is 53 µM. In addition, the IC50 in assay [2] (HEK293T cells) is greater than 6 µM.

Regarding `CC(C)(O)CNC(=O)c1nc(C(=O)N2CCC(F)CC2)c(-c2cnc(NC3CC(F)(F)C3)cc2C(F)(F)F)s1` [Example 21, 5-(6-((3,3-Difluorocyclobutyl)amino)-4-(trifluoromethyl)pyridin-3-yl)-4-(4-fluoropiperidine-1-carbonyl)-N-(2-hydroxy-2-methylpropyl)thiazole-2-carboxamide], the inhibition at 6 µM in assay [2] (Conditions A) came to 100%.

On to `CC(C)c1cc(NC2CCCCC2)ncc1-c1sc(C(=O)NCC(C)(C)O)nc1C(=O)N1CCC(F)CC1` [Example 65, 5-(6-(Cyclohexylamino)-4-isopropylpyridin-3-yl)-4-(4-fluoropiperidine-1-carbonyl)-N-(2-hydroxy-2-methylpropyl)thiazole-2-carboxamide], for which, in assay [2] (Conditions A), the concentration for half-maximal inhibition (IC50) is 0.21 µM and the inhibition at 6 µM came out at 103%.

On to `COc1cc(NC2CCCCC2)ncc1-c1sc(C(=O)NCC(C)(C)O)nc1C(=O)N1CCC(F)CC1` [Example 63, 5-(6-(Cyclohexylamino)-4-methoxypyridin-3-yl)-4-(4-fluoropiperidine-1-carbonyl)-N-(2-hydroxy-2-methylpropyl)thiazole-2-carboxamide], for which, in assay [2] (Conditions A), the IC50 was 0.25 µM and the inhibition at 6 µM came out at 96%.

For the compound `COc1cc(-c2sc(C(=O)NCC(C)(C)O)nc2C(=O)N2CCC(F)CC2)cnc1NC1CCCCC1` [Example 59, 5-(6-(Cyclohexylamino)-5-methoxypyridin-3-yl)-4-(4-fluoropiperidine-1-carbonyl)-N-(2-hydroxy-2-methylpropyl)thiazole-2-carboxamide], in assay [2] (Conditions A), the IC50 was 0.7 µM and the inhibition at 6 µM was determined as 88%.

With `C[C@H]1CCCN1C(=O)c1nc(C(=O)N[C@H](C)C(C)(C)O)sc1-c1cnc(NC2(C)CCC2)cc1C(F)F` [Example 321, 5-(4-(Difluoromethyl)-6-((1-methylcyclobutyl)amino)pyridin-3-yl)-N—((R)-3-hydroxy-3-methylbutan-2-yl)-4-((S)-2-methylpyrrolidine-1-carbonyl)thiazole-2-carboxamide], the Kd in assay [1] was found to be 0.0052 µM. Moreover, the inhibition at 3 µM in assay [3] (at 3 μM compound concentration, read-out: RORγt (FL) Reporter Assay B or C, % inhibition) is 87%. In assay [3] (read-out: RORγt (FL) Reporter Assay B or C, IC50), the IC50 was found to be 0.1 µM.

The values are drawn from patent publication US10975068B2, “6-aminopyridin-3-yl thiazoles as modulators of RORγT” (Janssen Pharmaceutica NV, priority 2016, dated 2021).
